Laboratory results published in patent US20160041192A1 (Ameritox, Ltd., priority 2014, published 2016).

What was measured:
[1] = human, in vivo
Description: (§1) Samples were subsequently vortexed and centrifuged prior to the injection of 5 μL on the QQQ. Each patient sample was analyzed twice to ensure accuracy.
(§2) Samples were subsequently vortexed and centrifuged prior to the injection of 5 μL on the QQQ.
as §2, §1, §2, §2, §2, §2, §2

[2] = Urine test of patients prescribed Seroquel after enzymatic hydrolysis with recombinant β-glucuronidase, QQQ; format: in vivo, human; settings: patient prescribed Seroquel, various doses
Description: 100 μL of each patient specimen was diluted with 400 μL of a “master mix” that included 1.6 μg/mL of quetiapine-D8 (internal standard), 0.06 M phosphate buffer, and at least 1450 U of a recombinant β-glucuronidase enzyme.

[3] = post oral dosing; cited from earlier work
[4] = cited from earlier work
[5] = humans; cited from earlier work
[6] = human urine; major defined by ≧10% total drug exposure (Baselt 2014); cited from earlier work

## OCCOCCN1CCN(C2=Nc3ccccc3Sc3ccccc32)CC1 [Quetiapine, 2-(2-(4-dibenzo[b,f][1,4]thiazepine-11-yl-1-piperazinyl)ethoxy) ethanol, reference compound]
[1]
  Urine concentration, Pre-Hydrolysis Results, Average: 838 ng/mL
  Urine concentration, Pre-Hydrolysis Results, Maximum Value: 4999 ng/mL
  Urine concentration, Pre-Hydrolysis Results, Median Value: 287 ng/mL
  Urine concentration, Pre-Hydrolysis Results, Minimum Value: 17 ng/mL
  Urine concentration, Pre-Hydrolysis Results, Subject HR: 4574 ng/mL
  Urine concentration, Pre-Hydrolysis Results, Subject eight: 120 ng/mL
  Urine concentration, Pre-Hydrolysis Results, Subject eighteen: 755 ng/mL
  Urine concentration, Pre-Hydrolysis Results, Subject eleven: 17 ng/mL
  Urine concentration, Pre-Hydrolysis Results, Subject fifteen: 1118 ng/mL
  Urine concentration, Pre-Hydrolysis Results, Subject five: 77 ng/mL
  Urine concentration, Pre-Hydrolysis Results, Subject four: 187 ng/mL
  Urine concentration, Pre-Hydrolysis Results, Subject fourteen: 917 ng/mL
  Urine concentration, Pre-Hydrolysis Results, Subject one: 269 ng/mL
  Urine concentration, Pre-Hydrolysis Results, Subject seven: 873 ng/mL
  Urine concentration, Pre-Hydrolysis Results, Subject seventeen: 315 ng/mL
  Urine concentration, Pre-Hydrolysis Results, Subject six: 77 ng/mL
  Urine concentration, Pre-Hydrolysis Results, Subject sixteen: 97 ng/mL
  Urine concentration, Pre-Hydrolysis Results, Subject thirteen: 1137 ng/mL
  Urine concentration, Pre-Hydrolysis Results, Subject three: 304 ng/mL
  Urine concentration, Pre-Hydrolysis Results, Subject twelve: 361 ng/mL
  Urine concentration, Pre-Hydrolysis Results, Subject twenty: 208 ng/mL
  Urine concentration, Pre-Hydrolysis Results, Subject twenty-one: 137 ng/mL
  Urine concentration, Pre-Hydrolysis Results, Subject twenty-two: 222 ng/mL
  Urine concentration, Pre-Hydrolysis Results, Subject two: 4999 ng/mL
[2]
  Urine concentration, Post-Hydrolysis Results, Subject T: 86 ng/mL
  Urine concentration, Post-Hydrolysis Results, Subject W: ND (Indicates that the listed parent or metabolite compound was either not detected or detected below the established cut-off of 5 ng/mL indicating a negative result for that particular subject.)
  Urine concentration, Post-Hydrolysis Results, Subject eleven: 4059 ng/mL
  Urine concentration, Post-Hydrolysis Results, Subject fifteen: >5000 ng/mL
  Urine concentration, Post-Hydrolysis Results, Subject four: 2928 ng/mL
  Urine concentration, Post-Hydrolysis Results, Subject nine: 1494 ng/mL
  Urine concentration, Post-Hydrolysis Results, Subject nineteen: 29 ng/mL
  Urine concentration, Post-Hydrolysis Results, Subject seventeen: >5000 ng/mL
  Urine concentration, Post-Hydrolysis Results, Subject sixteen: 3019 ng/mL
  Urine concentration, Post-Hydrolysis Results, Subject twenty: >5000 ng/mL
  Urine concentration, Post-Hydrolysis Results, Subject twenty-five: 2579 ng/mL
  Urine concentration, Post-Hydrolysis Results, Subject twenty-three: 14 ng/mL
[3]
  share of the total radioactivity in plasma: 24%
[4]; days of dosing
  time to steady state serum concentrations: 2 days
[4]; dosing with a light meal (~300 calories)
  increase of bioavailability: ~20%
[4]; in vivo
  mean elimination half-life: 6 h
[4]; oral administration
  absorption: rapidly absorbed
[5]
  excreted in the feces: 20%
  recovered in the urine: 73%

## [O-][S+]1c2ccccc2N=C(N2CCN(CCOCCO)CC2)c2ccccc21 (centres unmarked) [Quetiapine Sulfoxide]
[1]
  Urine concentration, Pre-Hydrolysis Results, Average: 2318 ng/mL
  Urine concentration, Pre-Hydrolysis Results, Maximum Value: >5000 ng/mL
  Urine concentration, Pre-Hydrolysis Results, Median Value: 2143 ng/mL
  Urine concentration, Pre-Hydrolysis Results, Subject HR: >5000 ng/mL
  Urine concentration, Pre-Hydrolysis Results, Subject eight: >5000 ng/mL
  Urine concentration, Pre-Hydrolysis Results, Subject eighteen: >5000 ng/mL
  Urine concentration, Pre-Hydrolysis Results, Subject eleven: 2143 ng/mL
  Urine concentration, Pre-Hydrolysis Results, Subject fifteen: 740 ng/mL
  Urine concentration, Pre-Hydrolysis Results, Subject five: 4484 ng/mL
  Urine concentration, Pre-Hydrolysis Results, Subject four: >5000 ng/mL
  Urine concentration, Pre-Hydrolysis Results, Subject fourteen: >5000 ng/mL
  Urine concentration, Pre-Hydrolysis Results, Subject nine: >5000 ng/mL
  Urine concentration, Pre-Hydrolysis Results, Subject one: >5000 ng/mL
  Urine concentration, Pre-Hydrolysis Results, Subject seven: >5000 ng/mL
  Urine concentration, Pre-Hydrolysis Results, Subject seventeen: >5000 ng/mL
  Urine concentration, Pre-Hydrolysis Results, Subject six: 1252 ng/mL
  Urine concentration, Pre-Hydrolysis Results, Subject sixteen: 2971 ng/mL
  Urine concentration, Pre-Hydrolysis Results, Subject thirteen: >5000 ng/mL
  Urine concentration, Pre-Hydrolysis Results, Subject three: >5000 ng/mL
  Urine concentration, Pre-Hydrolysis Results, Subject twelve: >5000 ng/mL
  Urine concentration, Pre-Hydrolysis Results, Subject twenty: >5000 ng/mL
  Urine concentration, Pre-Hydrolysis Results, Subject twenty-five: >5000 ng/mL
  Urine concentration, Pre-Hydrolysis Results, Subject twenty-four: >5000 ng/mL
  Urine concentration, Pre-Hydrolysis Results, Subject twenty-one: >5000 ng/mL
  Urine concentration, Pre-Hydrolysis Results, Subject twenty-two: >5000 ng/mL
  Urine concentration, Pre-Hydrolysis Results, Subject two: >5000 ng/mL
[2]
  Urine concentration, Post-Hydrolysis Results, Subject W: ND (Indicates that the listed parent or metabolite compound was either not detected or detected below the established cut-off of 5 ng/mL indicating a negative result for that particular subject.)
[6]
  abundance in urine: major

## O=C(O)COCCN1CCN(C2=Nc3ccccc3Sc3ccccc32)CC1 [Quetiapine Carboxylic Acid]
[1]
  Urine concentration, Pre-Hydrolysis Results, Subject HR: >5000 ng/mL
  Urine concentration, Pre-Hydrolysis Results, Subject T: 6 ng/mL
  Urine concentration, Pre-Hydrolysis Results, Subject W: 5 ng/mL
  Urine concentration, Pre-Hydrolysis Results, Subject eight: >5000 ng/mL
  Urine concentration, Pre-Hydrolysis Results, Subject eighteen: >5000 ng/mL
  Urine concentration, Pre-Hydrolysis Results, Subject eleven: >5000 ng/mL
  Urine concentration, Pre-Hydrolysis Results, Subject fifteen: >5000 ng/mL
  Urine concentration, Pre-Hydrolysis Results, Subject five: >5000 ng/mL
  Urine concentration, Pre-Hydrolysis Results, Subject four: >5000 ng/mL
  Urine concentration, Pre-Hydrolysis Results, Subject fourteen: >5000 ng/mL
  Urine concentration, Pre-Hydrolysis Results, Subject nine: >5000 ng/mL
  Urine concentration, Pre-Hydrolysis Results, Subject nineteen: 5 ng/mL
  Urine concentration, Pre-Hydrolysis Results, Subject one: >5000 ng/mL
  Urine concentration, Pre-Hydrolysis Results, Subject seven: >5000 ng/mL
  Urine concentration, Pre-Hydrolysis Results, Subject seventeen: >5000 ng/mL
  Urine concentration, Pre-Hydrolysis Results, Subject sixteen: >5000 ng/mL
  Urine concentration, Pre-Hydrolysis Results, Subject thirteen: >5000 ng/mL
  Urine concentration, Pre-Hydrolysis Results, Subject three: >5000 ng/mL
  Urine concentration, Pre-Hydrolysis Results, Subject twelve: >5000 ng/mL
  Urine concentration, Pre-Hydrolysis Results, Subject twenty: >5000 ng/mL
  Urine concentration, Pre-Hydrolysis Results, Subject twenty-five: >5000 ng/mL
  Urine concentration, Pre-Hydrolysis Results, Subject twenty-four: >5000 ng/mL
  Urine concentration, Pre-Hydrolysis Results, Subject twenty-three: 10 ng/mL
  Urine concentration, Pre-Hydrolysis Results, Subject twenty-two: >5000 ng/mL
[6]
  abundance in urine: major

## c1ccc2c(c1)N=C(N1CCNCC1)c1ccccc1S2 [N-Desalkyl Quetiapine, N-Desalkyl Quetiapine (Norquetiapine)]
[3]
  share of the total radioactivity in plasma: 10%
[6]
  abundance in urine: only small quantities
